Columns and labels:
EP1 receptor = biological target: T1, EP1 receptor (Mus musculus, UniProt P35375); conditions: read-out: Affinity for the EP1 receptor; cited from earlier work
T1 sequence (P35375 1-405): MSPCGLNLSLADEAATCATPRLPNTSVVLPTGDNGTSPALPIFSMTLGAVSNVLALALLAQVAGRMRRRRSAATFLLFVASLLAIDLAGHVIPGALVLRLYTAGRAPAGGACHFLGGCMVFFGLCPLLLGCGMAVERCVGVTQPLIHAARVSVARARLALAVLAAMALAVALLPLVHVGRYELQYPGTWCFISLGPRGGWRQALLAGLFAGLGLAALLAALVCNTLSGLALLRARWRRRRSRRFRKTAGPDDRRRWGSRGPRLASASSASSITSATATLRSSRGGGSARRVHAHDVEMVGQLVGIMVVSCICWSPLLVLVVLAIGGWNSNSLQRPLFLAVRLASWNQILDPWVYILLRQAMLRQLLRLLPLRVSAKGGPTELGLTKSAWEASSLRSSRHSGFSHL

EP3 receptor = biological target: T2, EP3 receptor (Mus musculus, UniProt P30557); conditions: cited from earlier work; for Ki: read-out: Affinity for the EP3 receptor
T2 sequence (P30557 1-365): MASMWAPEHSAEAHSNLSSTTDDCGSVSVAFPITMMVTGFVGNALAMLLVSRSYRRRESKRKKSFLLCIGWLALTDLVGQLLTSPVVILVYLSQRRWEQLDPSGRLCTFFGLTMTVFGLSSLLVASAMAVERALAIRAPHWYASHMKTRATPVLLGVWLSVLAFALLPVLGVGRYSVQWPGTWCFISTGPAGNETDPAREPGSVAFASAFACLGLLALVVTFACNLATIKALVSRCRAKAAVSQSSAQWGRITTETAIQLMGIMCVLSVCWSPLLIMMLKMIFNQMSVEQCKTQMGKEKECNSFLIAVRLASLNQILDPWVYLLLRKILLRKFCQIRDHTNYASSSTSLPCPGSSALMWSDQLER

[1] = test system: NMDA-induced brain lesion in C57B1/6 WT mice; assay: NMDA-induced brain lesion volume (excitotoxicity); assay type: in vivo, mouse; conditions: 15 nmol NMDA intrastriatal, 48 h
Experimental: (§1) Mice were anesthetized with 3.0% halothane and maintained with 1.0-1.5% continuous flow of halothane in oxygen-enriched air. Then the mice were mounted on a stereotactic frame and injected with 0.2 μl of different doses of ONO-AE-248 (0.5 nmol, 2.5 nmol, or 5.0 nmol) or vehicle (DMSO) via a 1μl Hamilton syringe (Reno, Nev.) into the right lateral ventricle as described previously (Ahmad et al., 2006a). After the injection, the needle was retracted slowly, the hole was plugged with bone wax, and the wound was sutured. Mice were then either transferred to another setup for the MCAO procedure or left in place for NMDA injection (see below).
To investigate the effect of NMDA toxicity in mice lacking the EP3 receptor, WT (n=7) and EP3-/- (n=8) mice were injected in the right striatum with 15 nmol NMDA or vehicle in a volume of 0.3 μl 20 min after being injected with ONO-AE-248, as reported earlier (Ahmad et al., 2006a). After injection, the hole was blocked and the wound sutured, as described above. After the surgical procedures, the animals were transferred to a temperature-regulated chamber to recover from anesthesia. Throughout the stereotactic procedures the rectal temperature of mice was monitored and maintained at 37.0±0.5° C.
At 48 h after NMDA injection, weight and rectal temperature of each mouse was recorded. Then, mice were transcardially perfused with phosphate-buffered saline, followed by 4% paraformaldehyde (pH 7.2), under deep anesthesia. Brains were immediately removed, post-fixed in paraformaldehyde overnight, cryoprotected in sucrose (30%) for 3 days, and frozen in 2-methyl butane (pre-cooled over dry ice). Brain sections cut on a cryostat were collected on microscope slides and stained with Cresyl Violet to estimate lesion volume. Images of the brain sections were taken and analyzed with SigmaScan Pro 5.0 software (Systat Software Inc., Richmond, Calif.) as described previously (Ahmad et al., 2006b).

[2] = test system: mouse model of middle cerebral artery (MCA) occlusion; assay: MCAO (90 min) and reperfusion, hemispheric infarct volume; assay type: in vivo; conditions: 90 min occlusion, 4 days reperfusion
Experimental: as §1
During the MCAO procedure (FIG. 1, Illustration A), mouse rectal temperature was monitored and maintained at 37.0±0.5° C. by a heating pad, and anesthesia was maintained with continuous flow of halothane in oxygen-enriched air via a nose cone. Relative CBF was monitored with laser-Doppler flowmetry (Moor Instruments, Devon, England) by a flexible fiber optic probe affixed to the skull over the parietal cortex supplied by the MCA (2 mm posterior and 6 mm lateral to the bregma). MCAO was carried out under aseptic conditions with a silicone-coated nylon monofilament as described previously (Shah et al., 2006). […]
Four days after MCAO surgery, mice (n=9/dose) were deeply anesthetized, and their brains were harvested and sliced coronally into five 2-mm-thick sections. […] The area of infarcted brain, identified by the lack of TTC staining, was measured on the rostral and caudal surfaces of each slice and numerically integrated across the thickness of the slice to obtain an estimate of infarct volume in each slice (SigmaScan Pro, SPSS, Port Richmond, Calif., USA). Volumes from all five slices were summed to calculate total infarct volume over the entire hemisphere and expressed as a percentage of the volume of the contralateral structure. […] The corrected infarct volume was calculated as: volume of contralateral hemisphere−(volume of ipsilateral hemisphere−volume of infarct).

EP3 = conditions: CHO cell lines; cited from earlier work
mice [3] = assay: Core body temperature by intra-abdominal radiofrequency probe; assay type: in vivo, mouse; conditions: mice without MCAO, room temperature, 4-day experiment
Experimental: A third cohort of mice was implanted with intra-abdominal radiofrequency probes [IPTT-200, Bio. Medic. Data System (BMDS), Seaford, Del.] 7 days before injection of ONO-AE-248 (n=5) or vehicle (n=5). Core temperature was sampled every 10 min for the first 90 min after injection, and then once daily for 4 days at room temperature via receivers (The DAS-5002 Notebook System™; BMDS). This telemetry system minimizes stress and allows temperature control and monitoring in freely moving animals.

rats = conditions: single ICV injection, 20 nmol; cited from earlier work
mice [4] = assay: Analysis of physiological parameters (arterial blood pH, PaO2, PaCO2, MABP) around MCAO; assay type: in vivo, mouse; conditions: before ischemia, during ischemia, during reperfusion; all doses
Experimental: Measurement of physiological parameters was carried out in a group of mice separate from that used to assess infarct volume (FIG. 1, Illustration B). Arterial blood samples collected via femoral catheter were analyzed for pH, PaO2, and PaCO2 before the occlusion, during occlusion, and 1 h after the occlusion. MABP was measured at the same time points by a pressure transducer connected to the femoral catheter.

O=C(O)CCC/C=C\C[C@H]1C(=O)C[C@@H](O)[C@@H]1/C=C/[C@@H](O)CCc1ccccc1 [17-phenyl trinor PGE2]
Ki (EP1 receptor): 14 nM | Ki (EP3 receptor): 21 nM

CCCCC[C@@H](/C=C/[C@H]1[C@H](OC)CC(=O)[C@@H]1C/C=C\CCCC(=O)O)OC [ONO-AE-248]
Effect on NMDA-induced toxicity ([1]; 0.5 nmol ICV pretreatment): did not affect | Effect on NMDA-induced lesion size ([1]; 2.5 nmol ICV pretreatment, p<0.02): significantly and dose-dependently increased | Effect on NMDA-induced lesion size ([1]; 5 nmol ICV pretreatment, p<0.001): significantly and dose-dependently increased | Infarct volume increase as compared with the vehicle-treated group ([2]; 0.5 nmol ICV before MCAO, not statistically significant): 17% | Infarct volume increase as compared with the vehicle-treated group ([2]; 2.5 nmol ICV before MCAO, statistically significant): 34% | Infarct volume increase as compared with the vehicle-treated group ([2]; 5.0 nmol ICV before MCAO, statistically significant): 38% | Effect on forskolin-induced increase in cAMP (EP3): prevented the forskolin-induced increase in cAMP | Effect on core body temperature (mice [3]): did not affect core body temperature | Effect on body temperature (rats): mild hyperthermia was induced | Specificity for EP3 over EP1 (EP3 receptor; EP3 versus EP1): 1333 times | MABP versus vehicle group (mice [4]): No statistically significant differences | PaCO2 versus vehicle group (mice [4]): No statistically significant differences | PaO2 versus vehicle group (mice [4]): No statistically significant differences | pH (arterial blood) versus vehicle group (mice [4]): No statistically significant differences

CS(=O)(=O)NC(=O)CCC/C=C\C[C@H]1C(=O)C[C@@H](O)[C@@H]1/C=C/[C@@H](O)COc1ccccc1 [sulprostone]
Ki (EP1 receptor): 4 nM | Ki (EP3 receptor): 0.6 nM

From patent US20100074896A1, “ANTAGONISTS OF PGE2 EP3 RECEPTORS” (The Johns Hopkins University, priority 2006, published 2010)
